Results from PMC9067113 (IUCrJ, 2022).
Read-outs that look alike come from different tables or passages of the source.

Columns and labels:
[1] = target: T1, β-lactoglobulin I56F/L39A/M107W (FAW) (Bos taurus, UniProt P02754, I18S/I72F/L17A/L55A/M123W); settings: 50 mM phosphate buffer pH 7.5
[2] = target: T2, β-lactoglobulin I56F/L39A/M107F (FAF) (Bos taurus, UniProt P02754, I18S/I72F/L17A/L55A/M123F); settings: 50 mM phosphate buffer pH 7.5
[3] = target: T2, β-lactoglobulin I56F/L39A/M107F (FAF); settings: for N, stoichiometry: one set of binding sites model
natural β-lactoglobulin = natural β-lactoglobulin (Bos taurus, UniProt P02754)
Chain of natural β-lactoglobulin (P02754 17-178): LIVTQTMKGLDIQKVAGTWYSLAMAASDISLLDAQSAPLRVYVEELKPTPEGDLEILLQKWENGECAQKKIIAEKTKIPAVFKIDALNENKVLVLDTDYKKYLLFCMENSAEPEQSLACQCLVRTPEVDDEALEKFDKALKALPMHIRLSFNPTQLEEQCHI

[4] = target: T1, β-lactoglobulin I56F/L39A/M107W (FAW)

T1 sequence (P02754 17-178 L17A/I18S/L55A/I72F/M123W): as the sequence (P02754 17-178) above, with L1A, I2S, L39A, I56F, M107W counted along it
T2 sequence (P02754 17-178 L17A/I18S/L55A/I72F/M123F): as the sequence (P02754 17-178) above, with L1A, I2S, L39A, I56F, M107F counted along it

Compound: CNCCCN1c2ccccc2CCc2ccccc21 [DSM, desipramine]
- stoichiometry (DSM molecule per BLG chain), CD [1]: 1
- stoichiometry (DSM molecule per BLG chain), CD [2]: 1
- N, stoichiometry ([3]; pH 7.5, 25 mM HEPES, 150 mM NaCl, 293 K): 0.94 ± 0.06
- TΔS a ([3]; pH 7.5, 293 K): 4.2192 kcal/mol
- ΔH a, enthalpy change ([3]; pH 7.5, 293 K): -1.634 ± 0.133 kcal/mol
- ΔS a, entropy change ([3]; pH 7.5, 293 K): 14.4 cal mol^−1 K^−1
- TΔS a ([3]; pH 8.5, Tris buffer, 293 K): 5.3033 kcal/mol
- ΔS a, entropy change ([3]; pH 8.5, Tris buffer, 293 K): 18.1 cal mol^−1 K^−1
- N, stoichiometry ([3]; pH 8.5, Tris buffer, 293 K): 1.21 ± 0.08
- N, stoichiometry (natural β-lactoglobulin; Natural BLG, pH 7.5, 25 mM HEPES, 150 mM NaCl, 293 K, one set of binding sites model): 0.91 ± 0.08
- TΔS a (natural β-lactoglobulin; Natural BLG, pH 7.5, 293 K): 4.395 kcal/mol
- ΔH a, enthalpy change (natural β-lactoglobulin; Natural BLG, pH 7.5, 293 K): -1.298 ± 0.145 kcal/mol
- ΔS a, entropy change (natural β-lactoglobulin; Natural BLG, pH 7.5, 293 K): 15.0 cal mol^−1 K^−1
- outcome of ITC titration at pH 8.5 (natural β-lactoglobulin; native protein, Tris buffer pH 8.5): insufficient enthalpy change for the calculation of binding parameters
- outcome of ITC titration at pH 8.5 ([4]; Tris buffer pH 8.5): insufficient enthalpy change for the calculation of binding parameters
- N, stoichiometry ([4]; pH 7.5, 25 mM HEPES, 150 mM NaCl, 293 K, one set of binding sites model): 0.92 ± 0.05
- TΔS a ([4]; pH 7.5, 293 K): 4.2485 kcal/mol
- ΔH a, enthalpy change ([4]; pH 7.5, 293 K): -1.792 ± 0.137 kcal/mol
- ΔS a, entropy change ([4]; pH 7.5, 293 K): 14.5 cal mol^−1 K^−1
